The assay addresses T1, human MGL from HeLa cells (Homo sapiens, UniProt Q99685).
T1 construct: combining endogenously expressed MGL from HeLa cells with test compounds; endogenous in cells; host or cells: HeLa cells / cell homogenates
T1 sequence (Q99685 1-303): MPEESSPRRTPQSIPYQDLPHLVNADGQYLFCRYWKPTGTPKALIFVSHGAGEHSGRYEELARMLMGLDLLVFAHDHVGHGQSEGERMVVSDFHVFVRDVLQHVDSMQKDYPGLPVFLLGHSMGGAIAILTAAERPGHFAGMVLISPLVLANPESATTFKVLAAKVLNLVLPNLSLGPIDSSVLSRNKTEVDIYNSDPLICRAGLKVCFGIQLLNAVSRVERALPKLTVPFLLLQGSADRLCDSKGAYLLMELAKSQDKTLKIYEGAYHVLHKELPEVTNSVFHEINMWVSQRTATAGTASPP
Briefly: In vitro MGL activity assay: [glycerol-1,3-3H]-oleyl glycerol cleavage by MGL from HeLa cells. Type of assay: biochemical. To be noted: 300 nM [Glycerol-1,3-3H]-oleyl glycerol, one hour. From the text:
MGL is the predominant hydrolase in HeLa cells/cell homogenates.
What is called IC50 is the point on the concentration scale where inhibition reaches its midpoint. Consider `C[C@H]1c2nn(C)c(-c3cc(F)c(F)c(F)c3)c2CCN1C(=O)c1cc2ccccc2nn1` [Example 478, Cinnolin-3-yl-[(7S)-2,7-dimethyl-3-(3,4,5-trifluorophenyl)-5,7-dihydro-4H-pyrazolo[3,4-c]pyridin-6-yl]methanone], for which 112 nM corresponded to half-maximal inhibition (IC50).

In turn, `C[C@H]1c2nn(C)c(-c3cc(F)c(F)c(F)c3)c2CCN1C(=O)c1ccc2ncncc2c1` [Example 479, [(7S)-2,7-Dimethyl-3-(3,4,5-trifluorophenyl)-5,7-dihydro-4H-pyrazolo[3,4-c]pyridin-6-yl]-quinazolin-6-yl-methanone] came in with an IC50 of 189 nM.

Compound `C[C@H]1c2nn(C)c(-c3cc(F)c(F)c(F)c3)c2CCN1C(=O)c1ccc2cncnc2c1` [Example 480, [(7S)-2,7-Dimethyl-3-(3,4,5-trifluorophenyl)-5,7-dihydro-4H-pyrazolo[3,4-c]pyridin-6-yl]-quinazolin-7-yl-methanone] returned a concentration for half-maximal inhibition (IC50) of 207 nM.

As to `C[C@H]1c2nn(C)c(-c3cc(F)c(F)c(F)c3)c2CCN1C(=O)c1ncnc2c(F)cccc12` [Example 481, [(7S)-2,7-Dimethyl-3-(3,4,5-trifluorophenyl)-5,7-dihydro-4H-pyrazolo[3,4-c]pyridin-6-yl]-(8-fluoroquinazolin-4-yl)methanone], half-maximal inhibition (IC50) was put at 5.2 nM.

The compound `C[C@H]1c2nn(C)c(-c3cc(F)c(F)c(F)c3)c2CCN1C(=O)c1ncnc2ccccc12` [Example 482, [(7S)-2,7-Dimethyl-3-(3,4,5-trifluorophenyl)-5,7-dihydro-4H-pyrazolo[3,4-c]pyridin-6-yl]-quinazolin-4-yl-methanone] gave an IC50 of 6.22 nM.

Compound `[2H]c1cnc2cc(C(=O)N3CCc4c(nn(C)c4-c4cc(F)c(F)c(F)c4)[C@@H]3C)ccc2n1` [Example 483, (2-Deuterioquinoxalin-6-yl)-[(7S)-2,7-dimethyl-3-(3,4,5-trifluorophenyl)-5,7-dihydro-4H-pyrazolo[3,4-c]pyridin-6-yl]methanone] came in with an IC50 of 10.2 nM.

In the case of `C[C@H]1c2nn(C)c(-c3cc(F)c(F)c(F)c3)c2CCN1C(=O)c1nccc2ncncc12` [Example 484, [(7S)-2,7-Dimethyl-3-(3,4,5-trifluorophenyl)-5,7-dihydro-4H-pyrazolo[3,4-c]pyridin-6-yl]-pyrido[4,3-d]pyrimidin-5-yl-methanone], the IC50 came out at 62.2 nM.

The compound `C[C@H]1c2nn(C)c(-c3cc(F)c(F)c(F)c3)c2CCN1C(=O)c1ccnc2cccnc12` [Example 485, [(7S)-2,7-Dimethyl-3-(3,4,5-trifluorophenyl)-5,7-dihydro-4H-pyrazolo[3,4-c]pyridin-6-yl]-(1,5-naphthyridin-4-yl)methanone] registered an IC50 of 33.2 nM.

Compound `C[C@H]1c2nn(C)c(-c3cc(F)c(F)c(F)c3)c2CCN1C(=O)c1nccc2ncccc12` [Example 486] displayed an IC50 of 13.7 nM.

In turn, `Cc1ccc2c(C(=O)N3CCc4c(nn(C)c4-c4cc(F)c(F)c(F)c4)[C@@H]3C)nccc2n1` [Example 487, [(7S)-2,7-Dimethyl-3-(3,4,5-trifluorophenyl)-5,7-dihydro-4H-pyrazolo[3,4-c]pyridin-6-yl]-(2-methyl-1,6-naphthyridin-5-yl)methanone] returned an IC50 of 35.3 nM.

The compound `C[C@H]1c2nn(C)c(-c3cc(F)c(F)c(F)c3)c2CCN1C(=O)c1cnc2ccncc2c1` [Example 488, [(7S)-2,7-Dimethyl-3-(3,4,5-trifluorophenyl)-5,7-dihydro-4H-pyrazolo[3,4-c]pyridin-6-yl]-(1,6-naphthyridin-3-yl)methanone] showed an IC50 of 227 nM.

In the case of `C[C@H]1c2nn(C)c(-c3cc(F)c(F)c(F)c3)c2CCN1C(=O)c1cncc2ncccc12` [Example 489], 30 nM corresponded to half-maximal inhibition (IC50).

Compound `C[C@H]1c2nn(C)c(-c3cc(F)c(F)c(F)c3)c2CCN1C(=O)c1cnc2ncccc2c1` [Example 490, [(7S)-2,7-Dimethyl-3-(3,4,5-trifluorophenyl)-5,7-dihydro-4H-pyrazolo[3,4-c]pyridin-6-yl]-(1,8-naphthyridin-3-yl)methanone] registered an IC50 of 226 nM.

The compound `C[C@H]1c2nn(C)c(-c3cc(F)c(F)c(F)c3)c2CCN1C(=O)c1ccnc2ncccc12` [Example 491, [(7S)-2,7-Dimethyl-3-(3,4,5-trifluorophenyl)-5,7-dihydro-4H-pyrazolo[3,4-c]pyridin-6-yl]-(1,8-naphthyridin-4-yl)methanone] gave an IC50 of 141 nM.

In turn, `Cc1ccccc1-c1c2c(nn1C)[C@H](C)N(C(=O)c1ccc3ncccc3c1)CC2` [Example 492, [(7S)-2,7-Dimethyl-3-(o-tolyl)-5,7-dihydro-4H-pyrazolo[3,4-c]pyridin-6-yl]-(6-quinolyl)methanone] returned an IC50 of 220 nM.

As to `C[C@H]1c2nn(C)c(-c3ccccc3C(F)(F)F)c2CCN1C(=O)c1ccc2ncccc2c1` [Example 493, [(7S)-2,7-Dimethyl-3-[2-(trifluoromethyl)phenyl]-5,7-dihydro-4H-pyrazolo[3,4-c]pyridin-6-yl]-(6-quinolyl)methanone], the IC50 was determined as 2360 nM.

The compound `C[C@H]1c2nn(C)c(-c3ccc(C(F)(F)F)cc3)c2CCN1C(=O)c1ccc2ncccc2c1` [Example 494, [(7S)-2,7-Dimethyl-3-[4-(trifluoromethyl)phenyl]-5,7-dihydro-4H-pyrazolo[3,4-c]pyridin-6-yl]-(6-quinolyl)methanone] had an IC50 of 54.9 nM.

Regarding `COc1cccc(-c2c3c(nn2C)[C@H](C)N(C(=O)c2ccc4ncccc4c2)CC3)c1` [Example 495, [(7S)-3-(3-Methoxyphenyl)-2,7-dimethyl-5,7-dihydro-4H-pyrazolo[3,4-c]pyridin-6-yl]-(6-quinolyl)methanone], it took 47.1 nM to reach half-maximal inhibition (IC50).

The compound `COc1ccccc1-c1c2c(nn1C)[C@H](C)N(C(=O)c1ccc3ncccc3c1)CC2` [Example 496, [(7S)-3-(2-Methoxyphenyl)-2,7-dimethyl-5,7-dihydro-4H-pyrazolo[3,4-c]pyridin-6-yl]-(6-quinolyl)methanone] showed a 50% inhibitory concentration (IC50) of 54.4 nM.

Consider `CCOc1ccc(-c2c3c(nn2C)[C@H](C)N(C(=O)c2ccc4ncccc4c2)CC3)cc1` [Example 497, [(7S)-3-(4-Ethoxyphenyl)-2,7-dimethyl-5,7-dihydro-4H-pyrazolo[3,4-c]pyridin-6-yl]-(6-quinolyl)methanone], for which the midpoint of inhibition, the IC50, lay at 313 nM.

Turning to `CC(C)Oc1cccc(-c2c3c(nn2C)[C@H](C)N(C(=O)c2ccc4ncccc4c2)CC3)c1` [Example 498, [(7S)-3-(3-Isopropoxyphenyl)-2,7-dimethyl-5,7-dihydro-4H-pyrazolo[3,4-c]pyridin-6-yl]-(6-quinolyl)methanone], the IC50 amounted to 361 nM.

On to `C[C@H]1c2nn(C)c(-c3cccc(OC(F)F)c3)c2CCN1C(=O)c1ccc2ncccc2c1` [Example 499, [(7S)-3-[3-(Difluoromethoxy)phenyl]-2,7-dimethyl-5,7-dihydro-4H-pyrazolo[3,4-c]pyridin-6-yl]-(6-quinolyl)methanone], for which the IC50 worked out at 44.4 nM.

Compound `C[C@H]1c2nn(C)c(-c3ccc(OC(F)(F)F)cc3)c2CCN1C(=O)c1ccc2ncccc2c1` [Example 500, [(7S)-2,7-Dimethyl-3-[4-(trifluoromethoxy)phenyl]-5,7-dihydro-4H-pyrazolo[3,4-c]pyridin-6-yl]-(6-quinolyl)methanone] displayed a concentration for half-maximal inhibition (IC50) of 75.7 nM.

For `C[C@H]1c2nn(C)c(-c3cccc(OC(F)(F)F)c3)c2CCN1C(=O)c1ccc2ncccc2c1` [Example 501, [(7S)-2,7-Dimethyl-3-[3-(trifluoromethoxy)phenyl]-5,7-dihydro-4H-pyrazolo[3,4-c]pyridin-6-yl]-(6-quinolyl)methanone], it took 58.6 nM to reach half-maximal inhibition (IC50).

In turn, `C[C@H]1c2nn(C)c(-c3ccc(F)cc3F)c2CCN1C(=O)c1ccc2ncccc2c1` [Example 502, [(7S)-3-(2,4-Difluorophenyl)-2,7-dimethyl-5,7-dihydro-4H-pyrazolo[3,4-c]pyridin-6-yl]-(6-quinolyl)methanone] registered an IC50 of 106 nM.

In turn, `C[C@H]1c2nn(C)c(-c3cccc(F)c3F)c2CCN1C(=O)c1ccc2ncccc2c1` [Example 503, [(7S)-3-(2,3-Difluorophenyl)-2,7-dimethyl-5,7-dihydro-4H-pyrazolo[3,4-c]pyridin-6-yl]-(6-quinolyl)methanone] gave an IC50 of 22 nM.

Turning to `C[C@H]1c2nn(C)c(-c3ccc(Cl)c(F)c3)c2CCN1C(=O)c1ccc2ncccc2c1` [Example 504, [(7S)-3-(4-Chloro-3-fluoro-phenyl)-2,7-dimethyl-5,7-dihydro-4H-pyrazolo[3,4-c]pyridin-6-yl]-(6-quinolyl)methanone], the IC50 was determined as 25.3 nM.

The compound `C[C@H]1c2nn(C)c(-c3ccc(F)c(Cl)c3)c2CCN1C(=O)c1ccc2ncccc2c1` [Example 505, [(7S)-3-(3-Chloro-4-fluoro-phenyl)-2,7-dimethyl-5,7-dihydro-4H-pyrazolo[3,4-c]pyridin-6-yl]-(6-quinolyl)methanone] registered an IC50 of 7.38 nM.

Compound `C[C@H]1c2nn(C)c(-c3ccc(F)cc3Cl)c2CCN1C(=O)c1ccc2ncccc2c1` [Example 506, [(7S)-3-(2-Chloro-4-fluoro-phenyl)-2,7-dimethyl-5,7-dihydro-4H-pyrazolo[3,4-c]pyridin-6-yl]-(6-quinolyl)methanone] registered an IC50 of 347 nM.

As to `C[C@H]1c2nn(C)c(-c3ccc(Cl)c(Cl)c3)c2CCN1C(=O)c1ccc2ncccc2c1` [Example 507, [(7S)-3-(3,4-Dichlorophenyl)-2,7-dimethyl-5,7-dihydro-4H-pyrazolo[3,4-c]pyridin-6-yl]-(6-quinolyl)methanone], inhibition was half-maximal at 15.2 nM (IC50).

Regarding `COc1ccc(F)cc1-c1c2c(nn1C)[C@H](C)N(C(=O)c1ccc3ncccc3c1)CC2` [Example 508, [(7S)-3-(5-Fluoro-2-methoxy-phenyl)-2,7-dimethyl-5,7-dihydro-4H-pyrazolo[3,4-c]pyridin-6-yl]-(6-quinolyl)methanone], the half-inhibitory concentration (IC50) was found to be 70 nM.

The values above are taken from patent US11820766B2, “Monoacylglycerol lipase modulators” (Janssen Pharmaceutica NV, priority 2018, dated 2023).
